Publication PMC8746705, “Comparison of Experimental Strategies to Study L-Type Amino Acid Transporter 1 (LAT1) Utilization by Ligands” (Molecules, 2021)

Experiment: Liver lysosomal accumulation after i.p. dose to mice
Format: in vivo
Details: mouse liver; parent drug of the named prodrug
Method: Adult male mice weighing 25 ± 5 g were supplied by Envigo (Venray, Netherlands). Mice were housed in stainless steel cages on a 12 h light (07:00–19:00) and 12 h dark (19:00–07:00) cycle at an ambient temperature of 22 ± 1 °C with a relative humidity of 50–60%. All experiments were carried out during the light phase. Tap water and food pellets (Lactamin R36; Lactamin AB, Södertälje, Sweden) were available ad libitum. A dose of 25 µmol/kg of compound 1, 2, or 8–11 was given as a bolus injection (i.p.) to mice. The mice were decapitated at selected time points between (10–360 min) and brain tissues were collected for sample preparation to be analyzed by liquid chromatography-mass spectrometric (LC-MS/MS) analysis.
The liver lysosomal samples (10–120 min; tmax) were prepared by homogenizing the pre-weigh tissues with ice-cold 0.25 M sucrose (1:3). […] Samples were vortexed and centrifuged at 10,000× g at 4 °C for 10 min and injected to LC-MS/MS to quantify the total drug amount in tissue as a control to lysosomal samples. […] The concentration of compounds in the crude lysosomal fractions were then analyzed with LC-MS/MS. Both the total liver tissue accumulation as well as the lysosomal fraction (including the possibly released parent drugs) were calculated from the standard curve that was prepared by spiking known amounts of compounds to ACN, including the selected internal standard. […]

Accumulation of parent drug (dosed as such) into crude lysosomal fraction, of total liver tissue accumulation: no parent drug was detected
SMILES: C[C@H](C(=O)Nc1cccc(C[C@H](N)C(=O)O)c1)c1cccc(C(=O)c2ccccc2)c1 [Compound 2]
